Assay results taken from article PMC13429874, “ABHD2 activity is not required for the non-genomic action of progesterone on human sperm” (Human Reproduction (Oxford, England), 2026).
Entries after “also recorded” stand apart in the source; their conditions may differ.

Tests used:
human sperm [1] = assay: Sperm hyperactivation assay (CASA); type: cell-based; details: 10 µM compound, 30 min; for effect on progesterone-induced hyperactivation: 3 µM progesterone
Method: Sperm hyperactivation was assessed in human sperm purified by density gradient centrifugation. Semen samples (n = 7) were allowed to liquefy for 15–30 min at 37°C, and up to 2 ml of liquified semen was layered onto a two-step GM501 gradient system (45%/90%; Gynemed; Sierksdorf, Germany) pre-equilibrated at 37°C. Gradients were centrifuged for 20 min at 400 × g (no break). The 90% pellet was collected, washed in SpermActive medium (Gynemed; composition per manufacturer: NaCl, KCl, MgSO4.7H2O, KH2PO4, 1.77 mM CaCl2.2H2O, D(+)-glucose anhydrous, sodium pyruvate, sodium lactate, EDTA, alanyl-glutamine, essential and non-essential amino acids, 25.71 mM NaHCO3, 15 mM HEPES, 5 g/l human serum albumin, 10 mg/l gentamicin, and phenol red), and incubated for at least 2 h at 37°C, 5% CO2.
For compound testing, sperm suspensions with 7.5 × 10^6 sperm/ml in SpermActive were treated with either DMSO (vehicle) or 10 µM test compound. For basal and induced hyperactivation conditions, DMSO or progesterone (3 µM), respectively, was added. Samples were incubated for 30 min at 37°C, 5% CO2, before motility analysis.
Motility was analyzed using a CASA system (CEROSII^TM Animal Motility, software version 1.16; Hamilton Thorne, Beverly, MA, USA), mounted on an Axiolab 5 microscope (Zeiss, Germany), equipped with a TPi-SX Thermal Plate (Tokai Hit; Shizuoka-ken, Japan) and a JAI CM-040-GE CCD camera (JAI; Tokyo, Japan). Leja slides (20 µm chamber depth; Leja Products B.V., Nieuw-Vennep, The Netherlands) were pre-warmed to 37°C, cleaned with lens paper, and loaded by capillary action with 6 µl sperm suspension; capillary correction was set to 1.3. Sperm tracks were recorded at 37°C using a 10× negative-phase objective, acquiring 60 frames at 60 Hz with 4 ms exposure and gain set to 600. For each sample and condition, 300–500 motile sperm from at least 10 non-overlapping fields were analyzed. Hyperactive sperm were identified using the SORT function with the following Boolean argument: VCL > 150 µm/s and LIN < 50% and ALH > 7 µm. For each sample and condition, the percentage of hyperactive sperm was normalized to the percentage of motile sperm, and the mean of two technical duplicates was reported.
Statistical analysis was performed using GraphPad Prism 10 for Windows (version 10.6.1). Data normality was assessed using Shapiro–Wilk test. Differences between basal and induced hyperactivation were evaluated using a paired t-test, with effective pairing confirmed across all comparisons. P < 0.05 was considered statistically significant.

ABHD2^L33–E425 [2] = biological target: T1, ABHD2^L33–E425 (Homo sapiens, UniProt P08910); assay: Differential scanning fluorimetry (DSF) with purified ABHD2^L33–E425; type: binding; details: for ΔTm shift for ABHD2^L33-425 determined by DSF: purified protein; for effect on heat-induced denaturation of ABHD2^L33–E425 (DSF binding): 40 µM steroid
T1 construct: expression for ABHD2 amino acids L33–E425, in which a predicted transmembrane domain (amino acids 1–32) is removed; His6-FLAG (N); made in house; host or cells: E. coli BL21(DE3)-R3-pRARE2
T1 sequence (P08910 33-425): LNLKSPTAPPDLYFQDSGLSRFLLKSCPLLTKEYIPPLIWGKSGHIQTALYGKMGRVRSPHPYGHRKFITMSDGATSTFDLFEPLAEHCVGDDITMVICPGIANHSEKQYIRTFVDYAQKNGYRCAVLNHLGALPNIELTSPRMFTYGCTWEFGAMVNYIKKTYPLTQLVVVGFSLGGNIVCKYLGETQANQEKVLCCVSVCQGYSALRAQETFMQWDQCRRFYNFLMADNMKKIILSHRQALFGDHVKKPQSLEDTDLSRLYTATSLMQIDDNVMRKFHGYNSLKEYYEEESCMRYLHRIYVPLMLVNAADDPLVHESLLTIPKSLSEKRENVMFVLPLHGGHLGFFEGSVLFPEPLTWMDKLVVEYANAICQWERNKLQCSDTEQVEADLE

human sperm [3] = assay: Sperm intracellular Ca2+ measurements (Fluo-4); type: cell-based; details: for compound-evoked changes in [Ca2+]i: 10 µM compound; for effect on progesterone-induced Ca2+ signal (amplitude and waveform): compounds 10 µM, TS150 60 µM, progesterone 3 µM
Method: Measurements of the changes in sperm intracellular Ca^2+ concentration ([Ca^2+]i) were performed on motile human sperm purified by swim-up. Semen samples were allowed to liquefy for 15–60 min at 37°C, and 0.5–1 ml liquified semen was layered beneath 4 ml human tubal fluid medium (HTF; 97.8 mM NaCl, 4.69 mM KCl, 0.2 mM MgSO4, 0.37 mM KH2PO4, 2.04 mM CaCl2, 2.78 mM glucose, 0.33 mM sodium pyruvate, 21.4 mM lactic acid, 4 mM NaHCO3, and 21 mM HEPES pH 7.35 adjusted with NaOH) in 50 ml conical tubes. Motile sperm were allowed to swim up into the HTF for 60–90 min at 37°C, collected, washed twice (700 × g, 20 min, 37°C), and resuspended in HTF containing 3 mg/ml HSA at a density of 1 × 10^7 sperm/ml. Changes of [Ca^2+]i in motile human sperm were measured as previously described ([Rennhack et al., 2018]), using a fluorescence plate-reader assay (FLUOstar Omega, BMG LABTECH) with 384-well plates. Swim-up-purified sperm were loaded with Fluo4-AM (5 μM, Thermo Fisher Scientific, Waltham, MA, USA) and Pluronic F-127 (0.05% w/v) for 20 min at 37°C. Excess dye was removed by centrifugation at 700 × g for 5 min, supernatant removal, and resuspension to 5 × 10^6 sperm/ml in HTF.
For recordings, wells of a 384-well plate were filled with 50 μl of the dye-loaded sperm suspension. Fluorescence was excited at 480 nm, and emission was recorded at 520 nm using a plate reader (Fluostar Omega, BMG Labtech). After establishing a baseline for at least 60 s, 25 µl test compound solutions were added and the fluorescence response recorded. After 4 min, 7.5 µl progesterone was added to reach a final concentration of 3 µM, and ensuing changes in fluorescence were recorded. For the analysis of compound-evoked Ca^2+ signal, basal fluorescence (F0) was determined prior to compound addition. For the determination of inhibitory effects of compounds on progesterone-evoked Ca^2+ signals, basal fluorescence (F0) was determined before progesterone addition. The CatSper inhibitor TS150 ([Schierling et al., 2023]) was used as a control. Each compound was tested in technical duplicates across ≥3 biological replicates, using sperm from at least two donors, and performed on at least two separate days.
Data analysis and graphical representation were performed with GraphPad Prism software version 10.6.1 (San Diego, CA, USA). Changes in Fluo-4 fluorescence are depicted as ΔF/F0 (%), i.e. the change in fluorescence (ΔF) relative to the mean basal fluorescence (F0) before application of buffer or compounds/ligands, to correct for intra- and inter-experimental variations in basal fluorescence among individual wells or to correct for compound-evoked changes in fluorescence. Signal amplitudes evoked in the presence of compounds were normalized to the maximal signal amplitude evoked by 3 µM progesterone in the absence of the compound (set to 1) to ease comparisons between experiments.

[4] = biological target: T2, full-length human ABHD2 (ABHD2^FL) (Homo sapiens, UniProt P08910); assay: ABHD2^FL enzymatic activity assay with 7-HCA substrate; type: biochemical; details: for IC50: Supplementary Table S2, read-out: IC50 measured in ABHD2^FL in the 7-HCA Assay
T2 construct: TEV site-eGFP-8xHis (C, cleaved yes); made in house; host or cells: SF9 insect cells (baculovirus)
T2 sequence (P08910 1-425): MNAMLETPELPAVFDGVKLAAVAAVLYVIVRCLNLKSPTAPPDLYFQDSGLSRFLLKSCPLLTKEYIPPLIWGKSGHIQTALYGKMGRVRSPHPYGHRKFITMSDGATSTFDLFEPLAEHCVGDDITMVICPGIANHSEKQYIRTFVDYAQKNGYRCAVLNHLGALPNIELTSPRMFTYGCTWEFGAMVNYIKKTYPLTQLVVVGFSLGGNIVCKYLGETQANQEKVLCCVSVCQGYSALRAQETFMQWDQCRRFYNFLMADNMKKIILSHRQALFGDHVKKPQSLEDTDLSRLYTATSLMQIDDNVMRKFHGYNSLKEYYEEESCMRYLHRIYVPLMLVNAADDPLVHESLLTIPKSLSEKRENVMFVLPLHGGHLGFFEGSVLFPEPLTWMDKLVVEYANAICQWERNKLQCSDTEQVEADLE

ABHD2^L33–E425 [5] = biological target: T1, ABHD2^L33–E425; assay: ABHD2^L33-E425 fluorometric enzymatic activity assay with 7-HCA substrate; type: biochemical; details: for IC50: 10 nM enzyme, 10 µM 7-HCA, read-out: IC50 for ABHD2^L33-425, fluorometric assay using 7-HCA
CatSper = details: cited from earlier work

Compound	ΔTm shift for ABHD2^L33-425 determined by DSF (ABHD2^L33–E425 [2])	IC50 (ABHD2^L33–E425 [5])	effect on heat-induced denaturation of ABHD2^L33–E425 (DSF binding) (ABHD2^L33–E425 [2]; 30 min pre-incubation)	effect on enzymatic activity of purified ABHD2^FL [4]	effect on enzymatic activity of purified ABHD2^L33–E425 (ABHD2^L33–E425 [5])	other results
O=C(N1CCCCC1)N1CCCC[C@@H]1c1ccccc1 [(R)-2]	8.4 °C	0.22 µM	–	–	–	effect on progesterone-induced hyperactivation (human sperm [1]): not affected; effect on basal hyperactivation (human sperm [1]): No statistically significant differences; also recorded: did not affect; compound-evoked changes in [Ca2+]i (human sperm [3]): only minuscule changes; effect on progesterone-induced Ca2+ signal (amplitude and waveform) (human sperm [3]): similar; IC50 [4]: 0.24 µM
O=C(N1CCCCC1)N1CCCC[C@@H]1Cc1ccccc1 [(R)-1]	3.0 °C	1.2 µM	–	–	–	effect on progesterone-induced hyperactivation (human sperm [1]): not affected; effect on basal hyperactivation (human sperm [1]): No statistically significant differences; also recorded: did not affect; compound-evoked changes in [Ca2+]i (human sperm [3]): only minuscule changes; effect on progesterone-induced Ca2+ signal (amplitude and waveform) (human sperm [3]): similar
C[C@]12CC[C@H]3[C@@H](CCC4=CC(=O)CC[C@@]43C)[C@@H]1CC[C@@H]2O [testosterone]	–	–	did not affect	did not alter	did not alter	–
COC(=O)[C@]1(C)CC[C@]2(C)CC[C@]3(C)C4=CC=C5C(=CC(=O)C(O)=C5C)[C@]4(C)CC[C@@]3(C)[C@@H]2C1 [pristimerin]	–	–	–	did not affect	did not affect	progesterone-induced Ca2+ influx and hyperactivation (CatSper): inhibitors; progesterone-induced CatSper activation (CatSper): do not interfere
pregnenolone sulfate	–	–	did not affect	weak inhibitory action	but not on ABHD2^L33–E425	–
Cc1ccc(C2CCCCN2C(=O)N2CCCCC2)cc1 (stereo not shown) [Compound 5]	3.3 °C	0.94 µM	–	–	–	effect on melting temperature / thermal stability of ABHD2^L33-E425 (DSF), in words (ABHD2^L33–E425 [2]; 10 µM compound, 30 min pre-incubation): increased melting temperature; IC50 [4]: 4.2 µM
17α-hydroxyprogesterone [reference compound]	–	–	no binding was observed	–	–	–
